# Laboratory results reported in PubChem BioAssay (NCI).
#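 Briefly, cells in 96-well plates were exposed to five compound concentrations for 48 h, and endpoints were estimated by linear interpolation. The concentration for 50% growth inhibition is given as GI50. TGI: concentration producing complete growth inhibition.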
# How the values were obtained:
# Assay in all cases: DTP human tumour cell line panel, 48 h
# [1] = test system: KM12 colon
# [2] = test system: MDA-MB-435
# [3] = test system: K-562 leukemia
# [4] = test system: SF-295 CNS
# [5] = test system: OVCAR-4 ovarian
# [6] = test system: A498 renal
# [7] = test system: OVCAR-5 ovarian
# [8] = test system: HL-60(TB) leukemia
# [9] = test system: NCI/ADR-RES ovarian
# [10] = test system: HCT-116 colon
# [11] = test system: M14 melanoma
# [12] = test system: NCI-H226 lung
# [13] = test system: MALME-3M melanoma
# [14] = test system: 786-0 renal
# [15] = test system: HCC-2998 colon
# [16] = test system: SK-MEL-28 melanoma
# [17] = test system: LOX IMVI melanoma
# [18] = test system: UACC-257 melanoma
# [19] = test system: NCI-H522 lung
# [20] = test system: CAKI-1 renal
# [21] = test system: IGROV1 ovarian
# [22] = test system: TK-10 renal
# [23] = test system: SNB-19 CNS
# [24] = test system: SR leukemia
# [25] = test system: PC-3 prostate
# [26] = test system: HCT-15 colon
# [27] = test system: MDA-MB-468 breast
# [28] = test system: MOLT-4 leukemia
# [29] = test system: SN12C renal
# [30] = test system: DU-145 prostate
# [31] = test system: U251 CNS
# [32] = test system: T-47D breast
# [33] = test system: MDA-MB-231 breast
# [34] = test system: NCI-H460 lung
# [35] = test system: HOP-62 NSCLC
# [36] = test system: ACHN renal
# [37] = test system: SK-OV-3 ovarian
# [38] = test system: COLO 205 colon
# [39] = test system: SK-MEL-5 melanoma
# [40] = test system: OVCAR-8 ovarian
# [41] = test system: EKVX NSCLC
# [42] = test system: SW-620 colon
# [43] = test system: UACC-62 melanoma
# [44] = test system: RPMI-8226 leukemia
# [45] = test system: OVCAR-3 ovarian
# [46] = test system: UO-31 renal
# [47] = test system: HS 578T breast
# [48] = test system: SNB-75 CNS
# [49] = test system: RXF 393 renal
# [50] = test system: CCRF-CEM leukemia
# [51] = test system: HT29 colon
# [52] = test system: SK-MEL-2 melanoma
# [53] = test system: HOP-92 NSCLC
# [54] = test system: NCI-H23 lung
# [55] = test system: A549 NSCLC
# [56] = test system: MCF7 breast
# [57] = test system: SF-539 CNS
# [58] = test system: BT-549 breast
# [59] = test system: SF-268 CNS
smiles,measurement,setting,value
COc1ccc(/C=C/C(=O)c2ccc(OC)c(S(N)(=O)=O)c2)c(C(F)(F)F)c1,GI50,[1],3.89 µM
same,TGI,[1],19 µM
same,GI50,[2],4.23 µM
same,TGI,[2],19.6 µM
same,GI50,[3],3.24 µM
same,TGI,[3],12.6 µM
same,GI50,[4],4.37 µM
same,TGI,[4],22.5 µM
same,GI50,[5],3.47 µM
same,TGI,[5],15.7 µM
same,GI50,[6],18.1 µM
same,TGI,[6],37.8 µM
same,GI50,[7],2.21 µM
same,TGI,[7],6.33 µM
same,GI50,[8],4.7 µM
same,TGI,[8],30.7 µM
same,GI50,[9],2.61 µM
same,TGI,[9],10.6 µM
same,GI50,[10],2.41 µM
same,TGI,[10],6.14 µM
same,GI50,[11],9.19 µM
same,TGI,[11],25.2 µM
same,GI50,[12],2.11 µM
same,TGI,[12],5.44 µM
same,GI50,[13],5.96 µM
same,TGI,[13],20.6 µM
same,GI50,[14],3.16 µM
same,TGI,[14],14.4 µM
same,GI50,[15],10.7 µM
same,TGI,[15],24.2 µM
same,GI50,[16],11.6 µM
same,TGI,[16],23.8 µM
same,GI50,[17],2.31 µM
same,TGI,[17],6.97 µM
same,GI50,[18],9.28 µM
same,TGI,[18],21.9 µM
same,GI50,[19],2.51 µM
same,TGI,[19],14.3 µM
same,GI50,[20],3.82 µM
same,TGI,[20],14.6 µM
same,GI50,[21],3.98 µM
same,TGI,[21],15.8 µM
same,GI50,[22],13.4 µM
same,TGI,[22],29.9 µM
same,GI50,[23],3.95 µM
same,TGI,[23],16.1 µM
same,GI50,[24],3 µM
same,TGI,[24],19.5 µM
same,GI50,[25],4.57 µM
same,TGI,[25],18.5 µM
same,GI50,[26],2.32 µM
same,TGI,[26],6.72 µM
same,GI50,[27],2.37 µM
same,TGI,[27],12 µM
same,GI50,[28],2.81 µM
same,TGI,[28],13.7 µM
same,GI50,[29],2.96 µM
same,TGI,[29],11.4 µM
same,GI50,[30],3.39 µM
same,TGI,[30],12.8 µM
same,GI50,[31],2.58 µM
same,TGI,[31],7.32 µM
same,GI50,[32],4.06 µM
same,TGI,[32],24.7 µM
same,GI50,[33],2.37 µM
same,TGI,[33],6.14 µM
same,GI50,[34],2.03 µM
same,TGI,[34],6.2 µM
same,GI50,[35],3.23 µM
same,TGI,[35],14.4 µM
same,GI50,[36],4.28 µM
same,TGI,[36],15.7 µM
same,GI50,[37],15.5 µM
same,TGI,[37],43 µM
same,GI50,[38],4.76 µM
same,TGI,[38],28.9 µM
same,GI50,[39],3.42 µM
same,TGI,[39],15.1 µM
same,GI50,[40],2.34 µM
same,TGI,[40],6.27 µM
same,GI50,[41],3.55 µM
same,TGI,[41],16.1 µM
same,GI50,[42],2.07 µM
same,TGI,[42],6.19 µM
same,GI50,[43],4.7 µM
same,TGI,[43],18.1 µM
same,GI50,[44],3.48 µM
same,TGI,[44],> 100 µM
same,GI50,[45],2.89 µM
same,TGI,[45],10.4 µM
same,GI50,[46],5.14 µM
same,TGI,[46],18.4 µM
same,GI50,[47],2.84 µM
same,TGI,[47],19.1 µM
same,GI50,[48],3.22 µM
same,TGI,[48],15.4 µM
same,GI50,[49],2.79 µM
same,TGI,[49],11.4 µM
same,GI50,[50],2.95 µM
same,TGI,[50],9.7 µM
same,GI50,[51],3.2 µM
same,TGI,[51],11.4 µM
same,GI50,[52],3.78 µM
same,TGI,[52],15.9 µM
same,GI50,[53],11 µM
same,TGI,[53],34.8 µM
same,GI50,[54],3.4 µM
same,TGI,[54],14.2 µM
same,GI50,[55],2.99 µM
same,TGI,[55],11.4 µM
same,GI50,[56],2.58 µM
same,TGI,[56],10.6 µM
same,GI50,[57],1.8 µM
same,TGI,[57],3.4 µM
same,GI50,[58],5.04 µM
same,TGI,[58],16.4 µM
same,GI50,[59],3.35 µM
same,TGI,[59],16.5 µM
